Results reported in patent publication US9206159B2, “Piperazine-piperidine compounds as hepatitis C virus inhibitors” (Theravance Biopharma R&D IP, LLC, priority 2012, dated 2015).

System: HCV genotype 1a replicon cell line
Assay: HCV Genotype 1a Replicon Assay
Assay type: cell-based, hepatitis C virus
Conditions: Huh7.5 cell background, NS3-specific protease activity in lysates, 48 or 72 hours; for EC50: Hepatitis C virus, read-out: Genotype 1a (pEC50 class) (converted)
Procedure: Assay 2: HCV Genotype 1a Replicon Assay
The HCV genotype 1a replicon cell line was obtained from Apath LLC (APC89; Huh7.5 cell background). This subgenomic replicon contains the N-terminus of the HCV core protein fused to the neomycin-resistance selectable marker. The EMCV IRES lies downstream and drives expression of the non-structural proteins NS3-NS5B. Compound potencies were determined using the NS3-specific protease activity in lysates as a measurement of compound inhibition of replicon levels.
Cells were grown at 37° C. in a 5% CO2 humidified incubator in DMEM (Invitrogen) with 10% FBS (HyClone), 1×NEAA (Invitrogen), 1× Pen-Strep (Invitrogen), and 850 μg/mL G418 (Invitrogen). On day 1 of the assay, cells were plated at 15,000 cells/well in black 96-well tissue culture plates (Costar) in 200 μL media lacking G418. Four hours later, once the cells had adhered, the media was removed and replaced with media (no G418) containing dose-responses of test compounds. Compounds were initially diluted in DMSO and then diluted another 200× in media to bring the final DMSO concentration down to 0.5%. The cells were incubated with test compounds for 48 or 72 hours. At the end of the incubation period, media and compound were removed from the plates.
To determine the NS3-specific protease activity in lysates, the cells were lysed at room temperature in 50 μL/well of 50 mM Hepes pH 7.5, 150 mM NaCl, 15% Glycerol, 0.15% Triton X-100, 10 mM DTT for 20 minutes with shaking. 50 μL of an NS3/4a protease-specific FRET substrate (Anaspec RET SI Cat#22991) was then added to the wells at a final concentration of 15 μM. The plates were incubated at 37° C. for 20 minutes, which corresponds to a timepoint at which the protease activity is still in the linear phase. Protease activity was determined by measuring fluorescence (Excitation: 340 nm; Emission: 509 nm).
To analyze the data, the fluorescence was plotted vs. the compound concentration, and EC50 values were determined from a 4-parameter robust fit model using GraphPad Prism software.

Row | Structure (SMILES) | EC50 [nM] | Genotype 1a (pEC50 class)
1 | COC(=O)N[C@H](C(=O)N1C[C@@H](C)C[C@H]1c1nc2c(ccc3cc(-c4ccc(NC(=O)N5CCN(C6CCN(C(=O)C(C)(C)C)CC6)CC5)cc4OC(F)(F)F)ccc32)[nH]1)C1CCOCC1 [Example 7-2] | < 0.1 | –
2 | CNC(=O)N1CCC(N2CCN(C(=O)Nc3ccc(-c4ccc(-c5c[nH]c(C6CCCN6C(=O)C(NC(=O)OC)C(C)C)n5)cc4)c(OC(F)(F)F)c3)CC2CO)CC1 (stereo not shown) [Example 1-43] | – | A (A represents a pEC50 value between 6 and 8 (EC50 between 1 μM and 10 nM))
3 | COC(=O)N[C@H](C(=O)N1CCC[C@H]1c1nc(-c2ccc(-c3ccc(NC(=O)N4CCC(N5CCN(C(=O)C6CC6)CC5)CC4)cc3)cc2)c[nH]1)C(C)C [Example 3-3] | – | A (A represents a pEC50 value between 6 and 8 (EC50 between 1 μM and 10 nM))
4 | COC(=O)N[C@H](C(=O)N1C[C@@H](C)C[C@H]1c1nc(-c2ccc(-c3ccc(NC(=O)N4CCN(C5CCN(C(=O)C6CC6)CC5)CC4)cc3OC(F)(F)F)cc2)c[nH]1)C(C)C [Example 2-1] | – | D (D represents pEC50>10 (EC50<0.1 nM))
5 | COC(=O)NC(C(=O)N1CCCC1c1nc(-c2ccc(-c3ccc(NC(=O)N4CCN(C5CCN(C(=O)OC(C)(C)C)CC5)C(C)C4)cc3OC(F)(F)F)cc2)c[nH]1)C(C)C (stereo not shown) [Example 1-38] | – | B (B represents pEC50 between 8 and 9 (EC50 between 1 and 10 nM))
6 | COC(=O)N[C@H](C(=O)N1C[C@@H](C)C[C@H]1c1nc2c(ccc3cc(-c4ccc(NC(=O)N5CCN(C6CCN(C(=O)OC(C)(C)C)CC6)CC5)cc4OC(F)(F)F)ccc32)[nH]1)C1CCOCC1 [Example 7-1] | < 0.1 | –
7 | COC(=O)N[C@H](C(=O)N1C[C@@H](C)C[C@H]1c1nc(-c2ccc(-c3cc(Cl)c(NC(=O)N4CCC(N5CCN(C(=O)[C@H]6CC6(C)C)[C@@H](C)C5)CC4)cc3OC(F)(F)F)cc2)c[nH]1)C(C)C [Example 4-2] | – | C (C represents pEC50 between and 9 and about 10, (EC50 between 1 nM and 0.1 nM))
8 | COC(=O)N[C@H](C(=O)N1C[C@@H](C)C[C@H]1c1nc(-c2ccc(-c3cc(Cl)c(NC(=O)N4CCN(C5CCN(C(=O)C(C)(C)C)CC5)CC4)cc3OC(F)(F)F)cc2)c[nH]1)C(C)C [Example 4] | 0.1 to 1 | –
9 | COC(=O)N[C@H](C(=O)N1C[C@@H](C)C[C@H]1c1nc(-c2ccc(-c3ccc(NC(=O)N4CCN(C5CCN(C(=O)C6CC6)CC5)CC4)cc3OC(F)(F)F)cc2)c(F)[nH]1)C(C)C [Example 9] | < 0.1 | –
10 | COC(=O)N[C@H](C(=O)N1C[C@@H](C)C[C@H]1c1nc(-c2ccc(-c3cc(Cl)c(NC(=O)N4CCC(N5CCN(C(=O)[C@H]6CC6(C)C)CC5)CC4)cc3OC(F)(F)F)cc2)c[nH]1)C(C)C [Example 4-14] | – | C (C represents pEC50 between and 9 and about 10, (EC50 between 1 nM and 0.1 nM))
11 | COC(=O)N[C@H](C(=O)N1C[C@@H](C)C[C@H]1c1nc(-c2ccc(-c3cc(Cl)c(NC(=O)N4CCN(C5CCN(C(=O)C6CC(C)(C)C6)CC5)CC4)cc3OC(F)(F)F)cc2)c[nH]1)C(C)C [Example 2-25] | – | B (B represents pEC50 between 8 and 9 (EC50 between 1 and 10 nM))
12 | COC(=O)N[C@H](C(=O)N1CCC[C@H]1c1nc(-c2ccc(-c3cc(F)c(NC(=O)N4CCN(C5CCN(C(=O)[C@H]6CC6(C)C)CC5)CC4)cc3OC(F)(F)F)cc2)c[nH]1)C(C)C [Example 1-26] | – | C (C represents pEC50 between and 9 and about 10, (EC50 between 1 nM and 0.1 nM))
13 | COC(=O)N[C@H](C(=O)N1CCC[C@H]1c1nc(-c2ccc(-c3ccc(NC(=O)N4CCC(N5CCN(C(=O)OC(C)(C)C)CC5)CC4)cc3)cc2)c[nH]1)C(C)C [Example 3-1] | – | A (A represents a pEC50 value between 6 and 8 (EC50 between 1 μM and 10 nM))
14 | COC(=O)N[C@H](C(=O)N1C[C@@H](C)C[C@H]1c1nc(-c2ccc(-c3cc(F)c(NC(=O)N4CCC(N5CCN(C(=O)C(C)(C)C)CC5)CC4)cc3OC(F)(F)F)cc2)c[nH]1)C(C)C [Example 4-7] | – | C (C represents pEC50 between and 9 and about 10, (EC50 between 1 nM and 0.1 nM))
15 | COC(=O)N[C@H](C(=O)N1C[C@@H](OC)C[C@H]1c1nc(-c2ccc(-c3ccc(NC(=O)N4CCN(C5CCN(C(=O)C6CCCC6(C)C)CC5)CC4)cc3OC(F)(F)F)cc2)c[nH]1)C(C)C (stereo partly shown) [Example 5-4] | 0.1 to 1 | –
16 | COC(=O)N[C@H](C(=O)N1C[C@@H](C)C[C@H]1c1nc(-c2ccc(-c3cc(F)c(NC(=O)N4CCC(N5CCN(C(=O)OC(C)(C)C)CC5)CC4)cc3OC(F)(F)F)cc2)c[nH]1)C(C)C [Example 4-6] | – | B (B represents pEC50 between 8 and 9 (EC50 between 1 and 10 nM))
17 | COC(=O)NC(C(=O)N1CCCC1c1nc(-c2ccc(-c3ccc(NC(=O)N4CCN(C5CCN(C(=O)C6CC6(C)C)CC5)C(CO)C4)cc3OC(F)(F)F)cc2)c[nH]1)C(C)C (stereo not shown) [Example 1-45] | – | B (B represents pEC50 between 8 and 9 (EC50 between 1 and 10 nM))
18 | COC(=O)N[C@H](C(=O)N1C[C@@H](C)C[C@H]1c1nc(-c2ccc(-c3ccc(NC(=O)N4CCN(C5CCN(C(=O)OC(C)(C)C)CC5)CC4)cc3OC(F)(F)F)cc2)c(Cl)[nH]1)C(C)C [Example 2-18] | – | C (C represents pEC50 between and 9 and about 10, (EC50 between 1 nM and 0.1 nM))
19 | COC(=O)NC(C(=O)N1CCCC1c1nc(-c2ccc(-c3ccc(NC(=O)N4CCN(C5CCN(C(=O)C6CC6)CC5)C(CO)C4)cc3OC(F)(F)F)cc2)c[nH]1)C(C)C (stereo not shown) [Example 1-44] | – | A (A represents a pEC50 value between 6 and 8 (EC50 between 1 μM and 10 nM))
20 | COC(=O)N[C@H](C(=O)N1C[C@@H](C)C[C@H]1c1nc(-c2ccc(-c3cc(Cl)c(NC(=O)N4CCN(C5CCN(C(=O)C6CC6(Cl)Cl)CC5)CC4)cc3OC(F)(F)F)cc2)c[nH]1)C(C)C (stereo partly drawn) [Example 2, [(S)-1-((S)-2-{4-[5′-Chloro-4′-({4-[1-(2,2-dichloro-cyclopropanecarbonyl)-piperidin-4-yl]-piperazine-1-carbonyl}-amino)-2′-trifluoromethoxy-biphenyl-4-yl]-1H-imidazol-2-yl}-4-methyl-pyrrolidine-1-carbonyl)-2-methyl-propyl]-carbamic acid methyl ester] | 1 to 10 | –
21 | COC(=O)N[C@H](C(=O)N1C[C@@H](C)C[C@H]1c1nc(-c2ccc(-c3cc(F)c(NC(=O)N4CCN(C5CCN(C(=O)C6CC6)CC5)CC4)cc3OC(F)(F)F)cc2)c[nH]1)C(C)C [Example 2-3] | – | D (D represents pEC50>10 (EC50<0.1 nM))
22 | CNC(=O)N1CCC(N2CCN(C(=O)Nc3cc(OC(F)(F)F)c(-c4ccc(-c5c[nH]c([C@@H]6C[C@H](C)CN6C(=O)[C@@H](NC(=O)OC)C(C)C)n5)cc4)cc3Cl)CC2)CC1 [Example 2-7] | – | C (C represents pEC50 between and 9 and about 10, (EC50 between 1 nM and 0.1 nM))
23 | COC(=O)N[C@H](C(=O)N1C[C@@H](C)C[C@H]1c1nc2c(ccc3cc(-c4ccc(NC(=O)N5CCN(C6CCN(C(=O)[C@H]7CC7(C)C)CC6)CC5)cc4OC(F)(F)F)ccc32)[nH]1)C1CCOCC1 [Example 7-5] | – | D (D represents pEC50>10 (EC50<0.1 nM))
24 | COC(=O)N[C@H](C(=O)N1C[C@@H](OC)C[C@H]1c1nc(-c2ccc(-c3ccc(NC(=O)N4CCN(C5CCN(C(=O)[C@H]6CC6(C)C)CC5)CC4)cc3OC(F)(F)F)cc2)c[nH]1)C(C)C [Example 5-2] | – | C (C represents pEC50 between and 9 and about 10, (EC50 between 1 nM and 0.1 nM))
25 | COC(=O)N[C@H](C(=O)N1CCC[C@H]1c1nc(-c2ccc(-c3cc(Cl)c(NC(=O)N4CCN(C5CCN(C(=O)C6CC6)CC5)CC4)cc3OC(F)(F)F)cc2)c[nH]1)C(C)C [Example 1-33] | – | C (C represents pEC50 between and 9 and about 10, (EC50 between 1 nM and 0.1 nM))
26 | COC(=O)N[C@H](C(=O)N1C[C@@H](C)C[C@H]1c1nc(-c2ccc(-c3ccc(NC(=O)N4CCC(N5CCN(C(=O)C(C)(C)C)CC5)CC4)cc3OC(F)(F)F)cc2)c[nH]1)C(C)C [Example 4-10] | – | C (C represents pEC50 between and 9 and about 10, (EC50 between 1 nM and 0.1 nM))
27 | COC(=O)N[C@H](C(=O)N1C[C@@H](C)C[C@H]1c1nc2c(ccc3cc(-c4ccc(NC(=O)N5CCN(C6CCN(C(=O)C(C)(C)CO)CC6)CC5)cc4OC(F)(F)F)ccc32)[nH]1)C1CCOCC1 [Example 7-3] | 0.1 to 1 | –
28 | COC(=O)N[C@H](C(=O)N1C[C@@H](C)C[C@H]1c1nc2c(ccc3cc(-c4ccc(NC(=O)N5CCN(C6CCN(C(=O)C7CCC7(C)C)CC6)CC5)cc4OC(F)(F)F)ccc32)[nH]1)C(C)C (stereo partly shown) [Example 6-3] | < 0.1 | –
